Measured values published in patent US8536202B2, “Triazole-substituted anthranilamides as pesticides” (Bayer Cropscience AG, priority 2010, dated 2013).
Like-named read-outs stand apart in the source and are kept apart here.

Assays:
[1] = test system: green peach aphid (Myzus persicae); assay: Myzus test (MYZUPE spray treatment), Use Example 4; type: in vivo; details: 144 h, read-out: activity in %
Procedure: Solvents: 78 parts by weight of acetone • • 1.5 parts by weight of dimethylformamide
Emulsifier: 0.5 part by weight of alkylaryl polyglycol ether
An appropriate preparation of active compound is prepared by mixing 1 part by weight of active compound with the stated amounts of solvents and emulsifier and diluting the concentrate with emulsifier-containing water to the desired concentration.
Leaf discs of Chinese cabbage (Brassica pekinensis) infested by all stages of the green peach aphid (Myzus persicae) are sprayed with a preparation of active compound at the desired concentration.
After 6 days, the activity in % is ascertained. Here, 100% means that all of the aphids have been killed; 0% means that no aphids have been killed.

[2] = test system: larvae of the mustard beetle (Phaedon cochleariae); assay: Phaedon test (PHAECO spray treatment); type: in vivo; details: 168 h, read-out: activity in %
Method in brief: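 Mortality of mustard beetle larvae, expressed as percent killed (100% all, 0% none), assessed 7 days after spraying. Spray liquor made from compound in acetone plus dimethylformamide with alkylaryl polyglycol ether, diluted in emulsifier-containing water to the desired concentration.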

[3] = test system: caterpillars of the armyworm (Spodoptera frugiperda); assay: Spodoptera frugiperda test (SPODFR spray treatment); type: in vivo; details: 168 h; for pest or weed control at 100 g/ha: read-out: activity in %
Method in brief: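 Percent caterpillar mortality read 7 days after infestation (0% none killed, 100% all killed). Treatment was a spray of the acetone/DMF/emulsifier formulation, water-diluted to test concentration, onto Zea mays leaf discs, allowed to dry before larvae were added.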

[4] = log P determination by HPLC on reversed-phase columns (EEC Directive 79/831 Annex V.A8); type: physicochemical; details: pH 2.7
Method in brief: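 Calibration used unbranched alkan-2-ones of 3 to 16 carbons with known log P, values interpolated linearly from retention times between neighbouring standards. Acidic-range LC-MS run at pH 2.7, eluents aqueous and acetonitrile formic acid 0.1%, linear gradient 10% to 95% acetonitrile.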

[5] = HPLC on reversed-phase columns (C 18), EEC Directive 79/831 Annex V.A8, read-out: logP
[6] = reversed-phase C18 HPLC column, HPLC on reversed-phase columns (C 18), EEC Directive 79/831 Annex V.A8, read-out: logP

Row | SMILES | pest or weed control at 100 g/ha ([1]; 100 g/ha, after 6 days) [%] | pest or weed control at 100 g/ha ([2]; 100 g/ha, after 7 days) [%] | pest or weed control at 100 g/ha ([3]; 100 g/ha, after 7 days) [%] | chromatographic logP [4] | pest or weed control at 100 g/ha [1] [%] | pest or weed control at 100 g/ha [2] [%] | pest or weed control at 100 g/ha [3] [%] | chromatographic logP [4, 5] | chromatographic logP [4, 6] | pest or weed control at 20 g/ha ([3]; 20 g/ha, after 7 days) [%]
1 | Cc1cc(Cl)cc(C(=O)NCC2CC2)c1NC(=O)c1cc(Cn2cc(C(F)(F)C(F)(F)F)nn2)nn1-c1ncccc1Cl [Example 305] | 100 | 100 | 100 | 3.55 | – | – | – | – | – | –
2 | Cc1cc(I)cc(C(=O)NCC#N)c1NC(=O)c1cc(Cn2cc(C(F)(F)F)nn2)nn1-c1ncccc1Cl [Example 215] | 90 | 100 | 100 | 2.82 | – | – | – | – | – | –
3 | CSC[C@H](C)NC(=O)c1cc(I)cc(C)c1NC(=O)c1cc(Cn2ncc(C(F)(F)C(F)(F)C(F)(F)F)n2)nn1-c1ncccc1Cl [Example 373] | – | – | – | – | 100 | 100 | 100 | 4.65 | – | –
4 | CNC(=O)c1cc(Cl)cc(Cl)c1NC(=O)c1cc(Cn2ncc(C(F)(F)F)n2)nn1-c1ncccc1Cl [Example 146] | 100 | 100 | 100 | 2.98 | – | – | – | – | – | –
5 | CSC[C@H](C)NC(=O)c1cc(I)cc(C)c1NC(=O)c1cc(Cn2ncc(C(F)(F)C(F)(F)F)n2)nn1-c1ncccc1Cl [Example 344] | 100 | 100 | 100 | 4.34 | – | – | – | – | – | –
6 | Cc1cc(C#N)cc(C(=O)NCC#N)c1NC(=O)c1cc(Cn2ncc(C(F)(F)F)n2)nn1-c1ncccc1Cl [Example 132] | 100 | 100 | 100 | 2.76 | – | – | – | – | – | –
7 | CCNC(=O)c1cc(Cl)cc(C)c1NC(=O)c1cc(Cn2cc(C(F)(F)F)nn2)nn1-c1ncccc1Cl [Example 189] | 80 | 100 | 100 | 2.9 | – | – | – | – | – | –
8 | CNC(=O)c1cc(C#N)cc(C)c1NC(=O)c1cc(Cn2cc(C(F)(F)C(F)(F)C(F)(F)F)nn2)nn1-c1ncccc1Cl [Example 343] | – | – | – | – | 100 | 100 | 100 | 3.04 | – | –
9 | NC(=O)c1cc(Cl)cc(Cl)c1NC(=O)c1cc(Cn2cc(C(F)(F)F)nn2)nn1-c1ncccc1Cl [Example 203] | 100 | 100 | 100 | 2.43 | – | – | – | – | – | –
10 | CNC(=O)c1cc(I)cc(C)c1NC(=O)c1cc(Cn2cc(C(F)(F)C(F)(F)C(F)(F)F)nn2)nn1-c1ncccc1Cl [Example 337] | – | – | – | – | 100 | 100 | 100 | 3.59 | – | –
11 | CCNC(=O)c1cc(C#N)cc(C)c1NC(=O)c1cc(Cn2cc(C(F)(F)F)nn2)nn1-c1ncccc1Br [Example 8] | 80 | 100 | 100 | – | – | – | – | – | 2.88 | –
12 | Cc1cc(I)cc(C(=O)NC(C)C2CC2)c1NC(=O)c1cc(Cn2cc(C(F)(F)C(F)(F)F)nn2)nn1-c1ncccc1Cl (stereo not drawn) [Example 309] | 80 | 100 | 100 | 4.03 | – | – | – | – | – | –
13 | Cc1cc(I)cc(C(=O)NC(C)(C)C)c1NC(=O)c1cc(Cn2ncc(C(F)(F)C(F)(F)F)n2)nn1-c1ncccc1Cl [Example 356] | 80 | 100 | 100 | 4.47 | – | – | – | – | – | –
14 | CNC(=O)c1cc(Cl)cc(C)c1NC(=O)c1cc(Cn2ncc(C(F)(F)C(F)(F)F)n2)nn1-c1ncccc1Cl [Example 352] | 80 | 100 | 100 | 3.4 | – | – | – | – | – | –
15 | CNC(=O)c1cc(Cl)cc(C)c1NC(=O)c1cc(Cn2cc(C(F)(C(F)(F)F)C(F)(F)F)nn2)nn1-c1ncccc1Cl [Example 225] | 100 | 100 | – | 3.36 | – | – | – | – | – | 100
16 | Cc1cc(C#N)cc(C(=O)NC2CC2)c1NC(=O)c1cc(Cn2ncc(C(F)(F)F)n2)nn1-c1ccccc1Cl [Example 289] | 100 | 100 | 100 | – | – | – | – | – | 3.3 | –
17 | Cc1cc(C#N)cc(C(=O)NC(C)C)c1NC(=O)c1cc(Cn2cc(C(F)(C(F)(F)F)C(F)(F)F)nn2)nn1-c1ncccc1Cl [Example 219] | 80 | 100 | 100 | – | – | – | – | – | 3.44 | –
18 | CCNC(=O)c1cc(C#N)cc(C)c1NC(=O)c1cc(Cn2ncc(C(F)(F)F)n2)nn1-c1ncccc1Br [Example 12] | 100 | 100 | 100 | – | – | – | – | – | 2.53 | –
19 | CNC(=O)c1cc(Cl)cc(C)c1NC(=O)c1cc(Cn2ncc(C(F)(F)C(F)(F)C(F)(F)F)n2)nn1-c1ncccc1Cl [Example 368] | – | – | – | – | 100 | 100 | 100 | 3.76 | – | –
20 | CCNC(=O)c1cc(Cl)cc(C)c1NC(=O)c1cc(Cn2cc(C(F)(F)C(F)(F)C(F)(F)F)nn2)nn1-c1ncccc1Cl [Example 341] | – | – | – | – | 100 | 100 | 100 | 3.62 | – | –
21 | Cc1cc(C#N)cc(C(=O)NC2CC2)c1NC(=O)c1cc(Cn2ncc(C(F)(F)F)n2)nn1-c1ncccc1Cl [Example 126] | 100 | 100 | 83 | 2.9 | – | – | – | – | – | –
22 | CNC(=O)c1cc(I)cc(C)c1NC(=O)c1cc(Cn2ncc(C(F)(F)F)n2)nn1-c1ncccc1Cl [Example 157] | 100 | 100 | 100 | 3.26 | – | – | – | – | – | –
23 | CNC(=O)c1cc(C#N)cc(C)c1NC(=O)c1cc(Cn2ncc(C(F)(C(F)(F)F)C(F)(F)F)n2)nn1-c1ncccc1Cl [Example 249] | 80 | 100 | 100 | 3.39 | – | – | – | – | – | –
24 | Cc1cc(C#N)cc(C(=O)NC2CC2)c1NC(=O)c1cc(Cn2cc(C(F)(C(F)(F)F)C(F)(F)F)nn2)nn1-c1ncccc1Cl [Example 224] | 80 | 100 | 100 | – | – | – | – | – | 3.24 | –
25 | Cc1cc(C#N)cc(C(=O)NC(C)(C)C)c1NC(=O)c1cc(Cn2cc(-c3ccc(Cl)cc3)nn2)nn1-c1ncccc1Cl [Example 54] | 80 | 100 | 100 | 3.54 | – | – | – | – | – | –
26 | Cc1cc(Cl)cc(C(=O)NC(C)(C)C)c1NC(=O)c1cc(Cn2nc(C(F)(F)F)c(C(F)(F)F)n2)nn1-c1ncccc1Cl [Example 393] | 90 | 100 | 100 | 4.59 | – | – | – | – | – | –
27 | Cc1cc(Cl)cc(C(=O)NC2CC2)c1NC(=O)c1cc(Cn2ncc(C(F)(F)C(F)(F)F)n2)nn1-c1ncccc1Cl [Example 362] | 80 | 100 | 100 | 3.62 | – | – | – | – | – | –
